Assay results as given in patent US20260250251A1, “HETEROCYCLIC COMPOUNDS AS PI3Ka INHIBITORS” (Pikavation Therapeutics, Inc., priority 2022, published 2026).

How the values were obtained:
[1] = system: T47D (PIK3CA H1047R) cells, pSer473 AKT; assay: pS473 AKT assay in T47D cells; type: cell-based; settings: Homo sapiens, treated 2 h, read-out: T47D_IC50
Procedure: (§1) SKBR3 (PIK3CA WT), MCF7 (PIK3CA E545K), and T47D (PIK3CA H1047R) cells were cultured using 10-cm petri dishes with recommended medium. One day before the assay, cells were seeded in 96-well plates. After overnight incubation, cells were treated with different concentrations of PI3Kα inhibitors for 2 h. Cells were then fixed using 4% paraformaldehyde at room temperature for 20 min. Cells were aspirated with 4% paraformaldehyde, and washed using 1× regular phosphate buffered saline 3 times, 5 min each. Any residual phosphate buffered saline was aspirated and cells were blocked using 10% goat serum containing 1% bovine serum albumin and 0.3% Triton X-100 at room temperature for 1 h. Without any additional washing, primary antibodies (rabbit anti-pSer473 AKT) were diluted using blocking buffer and added at a final volume of 50 microliter per well. Assay plates with primary antibodies were maintained overnight at 4° C. Cells were washed using 1× regular phosphate buffered saline 3 times, 5 min each. After the final wash, cells were incubated with horseradish peroxidase-conjugated secondary antibodies (goat Anti-rabbit IgG) and diluted using the same blocking buffer at room temperature for 1 h. Cells were then washed thoroughly using 1× regular phosphate buffered saline 3 times, 5 min each, and any residual phosphate buffered saline was aspirated. Super-Signal ELISA Pico Chemiluminescent Substrate was then added at a final volume of 100 microliter per well. Plates were read on a i3x Multi-Mode Microplate Reader and IC50 values calculated using GraphPad Prism software.
(§2) Results of the assay described above are presented in Table A. “++++” indicates an IC50 less than 1000 nM; “+++” indicates an IC50 greater than or equal to 1000 nM but less than 5000 nM; “++” indicates an IC50 greater than or equal to 5000 nM but less than 10000 nM; and “+” indicates an IC50 greater than or equal to 10000 nM.

[2] = system: SKBR3 (PIK3CA WT) cells, pSer473 AKT; assay: pS473 AKT assay in SKBR3 cells; type: cell-based; settings: Homo sapiens, SK-BR-3, treated 2 h, read-out: SKBR3_IC50
Procedure: as §1, §2

Row | SMILES | IC50 [1] [nM] | IC50 [2] [nM]
1 | Cn1nccc1-c1cc(NC(=O)c2cc(F)cc(C(F)(F)F)c2)c(Oc2cc(F)ccc2Cl)c2c(N)n[nH]c12 [Example 15, N-(3-Amino-4-(2-chloro-5-fluorophenoxy)-7-(1-methyl-1H-pyrazol-5-yl)-1H-indazol-5-yl)-3-fluoro-5-(trifluoromethyl)benzamide] | < 1000 | < 1000
2 | Cn1nc(N)c2c(Oc3cc(F)ccc3Cl)c(NC(=O)c3cc(F)cc(C(F)(F)F)c3)cc(C#CC3(N)CC3)c21 [Example 45, N-(3-Amino-7-((1-aminocyclopropyl)ethynyl)-4-(2-chloro-5-fluorophenoxy)-1-methyl-1H-indazol-5-yl)-3-fluoro-5-(trifluoromethyl)benzamide] | < 1000 | < 1000
3 | Cn1nc(N)c2c(Oc3cc(F)ccc3Cl)c(NC(=O)c3cc(F)cc(C(F)(F)F)c3)cc(CC#N)c21 [Example 31, N-(3-Amino-4-(2-chloro-5-fluorophenoxy)-7-(cyanomethyl)-1-methyl-1H-indazol-5-yl)-3-fluoro-5-(trifluoromethyl)benzamide] | < 1000 | < 1000
4 | Nc1n[nH]c2c(-c3ccccc3)cc(NC(=O)c3cc(F)cc(C(F)(F)F)c3)c(Oc3cc(F)ccc3Cl)c12 [Example 17, N-(3-Amino-4-(2-chloro-5-fluorophenoxy)-7-phenyl-1H-indazol-5-yl)-3-fluoro-5-(trifluoromethyl)benzamide] | < 1000 | 1000 to 5000
5 | Cn1nc(N)c2c(Oc3cc(F)ccc3Cl)c(NC(=O)c3cc(F)cc(C(F)(F)F)c3)cc(-c3cncnc3)c21 [Example 29, N-(3-Amino-4-(2-chloro-5-fluorophenoxy)-1-methyl-7-(pyrimidin-5-yl)-1H-indazol-5-yl)-3-fluoro-5-(trifluoromethyl)benzamide] | < 1000 | 1000 to 5000
6 | Cn1nc(N)c2c(Oc3cc(F)ccc3Cl)c(NC(=O)N3CCc4ccccc43)cc(Cl)c21 [Example 64, N-(3-Amino-7-chloro-4-(2-chloro-5-fluorophenoxy)-1-methyl-1H-indazol-5-yl)indoline-1-carboxamide] | < 1000 | 1000 to 5000
7 | Nc1nn2c3c(cc(NC(=O)c4cc(F)cc(C(F)(F)F)c4)c(Oc4cc(F)ccc4Cl)c13)CN(C1CC1)C2=O [Example 71, N-(2-Amino-3-(2-chloro-5-fluorophenoxy)-7-cyclopropyl-8-oxo-7,8-dihydro-6H-pyrazolo[4,5,1-ij]quinazolin-4-yl)-3-fluoro-5-(trifluoromethyl)benzamide] | < 1000 | < 1000
8 | Nc1n[nH]c2c(Cl)cc(NC(=O)c3cc(F)cc(C(F)(F)F)c3)c(Oc3cc(F)ccc3Cl)c12 [Example 12, N-(3-Amino-7-chloro-4-(2-chloro-5-fluorophenoxy)-1H-indazol-5-yl)-3-fluoro-5-(trifluoromethyl)benzamide] | < 1000 | < 1000
9 | Cn1nc(NC(=O)CN)c2c(Oc3cc(F)ccc3Cl)c(NC(=O)c3cc(F)cc(C(F)(F)F)c3)cc(Cl)c21 [Example 35, N-(3-(2-Aminoacetamido)-7-chloro-4-(2-chloro-5-fluorophenoxy)-1-methyl-1H-indazol-5-yl)-3-fluoro-5-(trifluoromethyl)benzamide] | < 1000 | 1000 to 5000
10 | CS(=O)(=O)n1nc(N)c2c(Oc3cc(F)ccc3Cl)c(NC(=O)c3cc(F)cc(C(F)(F)F)c3)cc(Br)c21 [Example 81, N-(3-Amino-7-bromo-4-(2-chloro-5-fluorophenoxy)-1-(methylsulfonyl)-1H-indazol-5-yl)-3-fluoro-5-(trifluoromethyl)benzamide] | < 1000 | 1000 to 5000
11 | Nc1n[nH]c2ccc(NC(=O)N3CC(O)(C(F)(F)F)c4cc(F)ccc43)c(Oc3cc(F)ccc3Cl)c12 (stereo not drawn) [Example 19, N-(3-Amino-4-(2-chloro-5-fluorophenoxy)-1H-indazol-5-yl)-5-fluoro-3-hydroxy-3-(trifluoromethyl)indoline-1-carboxamide] | < 1000 | 1000 to 5000
12 | Nc1nn2c3c(cc(NC(=O)c4cc(F)cc(C(F)(F)F)c4)c(Oc4cc(F)ccc4Cl)c13)CCC2 [Example 22, N-(2-amino-3-(2-chloro-5-fluorophenoxy)-7,8-dihydro-6H-pyrazolo[4,5,1-ij]quinolin-4-yl)-3-fluoro-5-(trifluoromethyl)benzamide] | < 1000 | < 1000
13 | Cn1nc(N)c2c(Oc3cc(F)ccc3Cl)c(NC(=O)c3cc(F)cc(C(F)(F)F)c3)cc(C#CC3(O)CC3)c21 [Example 43, N-(3-Amino-4-(2-chloro-5-fluorophenoxy)-7-((1-hydroxycyclopropyl)ethynyl)-1-methyl-1H-indazol-5-yl)-3-fluoro-5-(trifluoromethyl)benzamide] | < 1000 | < 1000
14 | Cn1nc(N)c2c(Oc3cc(F)ccc3Cl)c(NC(=O)c3cc(F)cc(C(F)(F)F)c3)cc(C#CC(C)(C)O)c21 [Example 39, N-(3-Amino-4-(2-chloro-5-fluorophenoxy)-7-(3-hydroxy-3-methylbut-1-yn-1-yl)-1-methyl-1H-indazol-5-yl)-3-fluoro-5-(trifluoromethyl)benzamide] | < 1000 | 1000 to 5000
15 | CCNC(=O)c1cc(NC(=O)c2cc(F)cc(C(F)(F)F)c2)c(Oc2cc(F)ccc2Cl)c2c(N)nn(C)c12 [Example 65, 3-Amino-4-(2-chloro-5-fluorophenoxy)-N-ethyl-5-(3-fluoro-5-(trifluoromethyl)benzamido)-1-methyl-1H-indazole-7-carboxamide] | < 1000 | < 1000
16 | Cn1nc(N)c2c(Oc3cc(F)ccc3Cl)c(NC(=O)c3cc(F)cc(C(F)(F)F)c3)cc(/C=C/c3ccccn3)c21 [Example 76, (E)-N-(3-Amino-4-(2-chloro-5-fluorophenoxy)-1-methyl-7-(2-(pyridin-2-yl)vinyl)-1H-indazol-5-yl)-3-fluoro-5-(trifluoromethyl)benzamide] | < 1000 | 5000 to 10000
17 | Cn1nc(N)c2c(Oc3cc(F)ccc3Cl)c(NC(=O)c3cc(F)cc(C(F)(F)F)c3)cc(-c3ccc(C(N)=O)cc3)c21 [Example 27, N-(3-Amino-7-(4-carbamoylphenyl)-4-(2-chloro-5-fluorophenoxy)-1-methyl-1H-indazol-5-yl)-3-fluoro-5-(trifluoromethyl)benzamide] | < 1000 | 1000 to 5000
18 | Nc1n[nH]c2ccc(NC(=O)c3cc(F)cc(C(F)(F)F)c3)c(COc3cc(F)ccc3Cl)c12 [Example 6, N-(3-amino-4-((2-chloro-5-fluorophenoxy)methyl)-1H-indazol-5-yl)-3-fluoro-5-(trifluoromethyl)benzamide] | 1000 to 5000 | ≥ 10000
19 | CN(C)c1nn(C)c2c(Cl)cc(NC(=O)c3cc(F)cc(C(F)(F)F)c3)c(Oc3cc(F)ccc3Cl)c12 [Example 54, N-(7-chloro-4-(2-chloro-5-fluorophenoxy)-3-(dimethylamino)-1-methyl-1H-indazol-5-yl)-3-fluoro-5-(trifluoromethyl)benzamide] | ≥ 10000 | ≥ 10000
20 | CC(C)n1cc(-c2cc(NC(=O)c3cc(F)cc(C(F)(F)F)c3)c(Oc3cc(F)ccc3Cl)c3c(N)nn(C)c23)cn1 [Example 26, N-(3-Amino-4-(2-chloro-5-fluorophenoxy)-7-(1-isopropyl-1H-pyrazol-4-yl)-1-methyl-1H-indazol-5-yl)-3-fluoro-5-(trifluoromethyl)benzamide] | < 1000 | 1000 to 5000
21 | Nc1n[nH]c2ccc(NC(=O)c3csc4ccccc34)c(Oc3cc(F)ccc3Cl)c12 [Example 18, N-(3-Amino-4-(2-chloro-5-fluorophenoxy)-1H-indazol-5-yl)benzo[b]thiophene-3-carboxamide] | < 1000 | < 1000
22 | Cn1nc(N)c2c(Oc3cc(F)ccc3Cl)c(NC(=O)c3cc(F)cc(C(F)(F)F)c3)cc(/C=C\C#N)c21 [Example 58, (Z)—N-(3-amino-4-(2-chloro-5-fluorophenoxy)-7-(2-cyanovinyl)-1-methyl-1H-indazol-5-yl)-3-fluoro-5-(trifluoromethyl)benzamide] | < 1000 | < 1000
23 | Cn1ccc(C#Cc2cc(NC(=O)c3cc(F)cc(C(F)(F)F)c3)c(Oc3cc(F)ccc3Cl)c3c(N)nn(C)c23)n1 [Example 48, N-(3-Amino-4-(2-chloro-5-fluorophenoxy)-1-methyl-7-((1-methyl-1H-pyrazol-3-yl)ethynyl)-1H-indazol-5-yl)-3-fluoro-5-(trifluoromethyl)benzamide] | < 1000 | 1000 to 5000
24 | Cn1nc(N)c2c(Oc3cc(F)ccc3Cl)c(NC(=O)c3csc4ccccc34)cc(Cl)c21 [Example 63, N-(3-Amino-7-chloro-4-(2-chloro-5-fluorophenoxy)-1-methyl-1H-indazol-5-yl)benzo[b]thiophene-3-carboxamide] | < 1000 | 1000 to 5000
